Assay results: publication PMC10332445 (Journal of medicinal chemistry, 2023)

How the values were obtained:
TMD8 cells [1] = experiment: Cell viability, CellTiter-Glo 2.0, TMD8 cells; assay type: cell-based; conditions: read-out: TMD8 Cells IC50, 48 h
GSPT1 = GSPT1 (Homo sapiens, UniProt P15170); experiment: Label-free proteomics in TMD8 cells: GSPT1; assay type: cell-based; conditions: 111 nM, 6 h
Mino cells [2] = experiment: Cell viability, CellTiter-Glo 2.0, Mino cells; assay type: cell-based; conditions: read-out: Mino Cells IC50, 48 h (Figure 6) or 72 h (method)
[3] = test system: CSK, SYK, FRK, HCK, LYN, BAZ1B, TYK2, and Fes/Fps; experiment: Label-free proteomics in TMD8 cells: other kinases; assay type: cell-based, human; conditions: 111 nM, 6 h
IKZF1 and IKZF3 = experiment: Label-free proteomics in TMD8 cells: neo-substrates IKZF1/3; assay type: cell-based, human; conditions: 111 nM, 6 h
BTK [4] = target: T1, BTK (Homo sapiens, UniProt Q06187); experiment: BTK degradation in Ramos cells by western blot; assay type: cell-based; conditions: for BTK degradation by parent molecules: GDC-0853 and/or pomalidomide, 3000 nM to 0.15 nM, Figure S2
T1 sequence (Q06187 whole entry): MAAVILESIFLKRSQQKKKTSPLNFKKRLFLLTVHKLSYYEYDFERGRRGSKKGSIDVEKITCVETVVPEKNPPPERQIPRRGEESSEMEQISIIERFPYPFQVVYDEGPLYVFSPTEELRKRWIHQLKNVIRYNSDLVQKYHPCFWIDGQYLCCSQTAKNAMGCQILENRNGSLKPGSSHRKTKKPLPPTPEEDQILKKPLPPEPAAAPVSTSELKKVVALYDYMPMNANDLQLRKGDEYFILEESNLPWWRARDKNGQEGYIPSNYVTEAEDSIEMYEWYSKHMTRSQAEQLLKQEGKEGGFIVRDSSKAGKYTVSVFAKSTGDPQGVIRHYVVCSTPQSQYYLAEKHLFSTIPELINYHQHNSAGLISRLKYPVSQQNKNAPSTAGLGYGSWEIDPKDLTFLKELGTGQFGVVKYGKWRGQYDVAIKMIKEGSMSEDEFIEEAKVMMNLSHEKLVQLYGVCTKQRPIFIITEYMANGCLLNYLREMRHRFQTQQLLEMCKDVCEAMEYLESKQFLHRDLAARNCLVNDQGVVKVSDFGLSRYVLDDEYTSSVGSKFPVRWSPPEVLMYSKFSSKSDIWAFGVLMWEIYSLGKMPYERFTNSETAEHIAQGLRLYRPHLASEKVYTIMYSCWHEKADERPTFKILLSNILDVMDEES

BCR signaling pathway = BCR signaling pathway western blots in TMD8 and Mino cells; assay type: cell-based; conditions: 48 h, stimulated with anti-human IgM
TMD8 cells [5] = experiment: Apoptosis by Annexin-V/PI flow cytometry, TMD8 cells; assay type: cell-based; conditions: 48 h; for Induction of apoptosis: TMD8 cells, 3000 nM to 0.15 nM
Mino cells [6] = experiment: Apoptosis by Annexin-V/PI flow cytometry, Mino cells; assay type: cell-based; conditions: 48 h, 3000 nM to 0.15 nM
CRBN = CRBN (Homo sapiens, UniProt Q96SW2); experiment: NanoBRET live-cell target engagement of CRBN in HEK293 cells; assay type: cell-based; conditions: number in parentheses, 37 °C
CRBN, sequence (Q96SW2 whole entry): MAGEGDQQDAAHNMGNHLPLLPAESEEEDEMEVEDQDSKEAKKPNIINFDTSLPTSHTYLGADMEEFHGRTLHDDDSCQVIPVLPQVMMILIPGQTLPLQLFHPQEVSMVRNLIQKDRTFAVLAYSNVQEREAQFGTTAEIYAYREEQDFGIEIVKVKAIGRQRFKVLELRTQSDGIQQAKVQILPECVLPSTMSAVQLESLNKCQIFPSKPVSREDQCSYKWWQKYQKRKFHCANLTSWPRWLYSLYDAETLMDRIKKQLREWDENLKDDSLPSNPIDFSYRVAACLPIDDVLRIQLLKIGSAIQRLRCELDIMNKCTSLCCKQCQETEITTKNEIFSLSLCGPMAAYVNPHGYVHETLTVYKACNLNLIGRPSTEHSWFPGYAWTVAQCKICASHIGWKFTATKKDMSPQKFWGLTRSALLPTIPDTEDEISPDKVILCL

[7] = test system: caspase-3, PARP, Bcl-2, Mcl-1; experiment: Apoptosis pathway proteins by western blot in TMD8 and Mino cells; assay type: cell-based; conditions: 48 h
BTK [8] = target: T1, BTK; experiment: NanoBRET live-cell target engagement of BTK in HEK293 cells; assay type: cell-based; conditions: for Hill slope, BTK target engagement: number in parentheses, 37 °C
BTK [9] = target: T1, BTK; experiment: BTK degradation in seven B-cell malignant cell lines; assay type: cell-based; conditions: Figure S4
[10] = target: ternary complex between BTK and CRBN (Homo sapiens, UniProt Q06187+Q96SW2); experiment: NanoBRET ternary complex formation assay in HEK293 cells; assay type: cell-based; conditions: for Ternary complex formation (in words): live-cell NanoBRET
ternary complex between BTK and CRBN, sequence (Q06187 whole entry): as the sequence (Q06187 whole entry) above
ternary complex between BTK and CRBN, sequence (Q96SW2 whole entry): as the sequence (Q96SW2 whole entry) above

GSPT1, sequence (Q96SW2 whole entry partner): as the sequence (Q96SW2 whole entry) above
GSPT1, sequence (Q16531 whole entry partner): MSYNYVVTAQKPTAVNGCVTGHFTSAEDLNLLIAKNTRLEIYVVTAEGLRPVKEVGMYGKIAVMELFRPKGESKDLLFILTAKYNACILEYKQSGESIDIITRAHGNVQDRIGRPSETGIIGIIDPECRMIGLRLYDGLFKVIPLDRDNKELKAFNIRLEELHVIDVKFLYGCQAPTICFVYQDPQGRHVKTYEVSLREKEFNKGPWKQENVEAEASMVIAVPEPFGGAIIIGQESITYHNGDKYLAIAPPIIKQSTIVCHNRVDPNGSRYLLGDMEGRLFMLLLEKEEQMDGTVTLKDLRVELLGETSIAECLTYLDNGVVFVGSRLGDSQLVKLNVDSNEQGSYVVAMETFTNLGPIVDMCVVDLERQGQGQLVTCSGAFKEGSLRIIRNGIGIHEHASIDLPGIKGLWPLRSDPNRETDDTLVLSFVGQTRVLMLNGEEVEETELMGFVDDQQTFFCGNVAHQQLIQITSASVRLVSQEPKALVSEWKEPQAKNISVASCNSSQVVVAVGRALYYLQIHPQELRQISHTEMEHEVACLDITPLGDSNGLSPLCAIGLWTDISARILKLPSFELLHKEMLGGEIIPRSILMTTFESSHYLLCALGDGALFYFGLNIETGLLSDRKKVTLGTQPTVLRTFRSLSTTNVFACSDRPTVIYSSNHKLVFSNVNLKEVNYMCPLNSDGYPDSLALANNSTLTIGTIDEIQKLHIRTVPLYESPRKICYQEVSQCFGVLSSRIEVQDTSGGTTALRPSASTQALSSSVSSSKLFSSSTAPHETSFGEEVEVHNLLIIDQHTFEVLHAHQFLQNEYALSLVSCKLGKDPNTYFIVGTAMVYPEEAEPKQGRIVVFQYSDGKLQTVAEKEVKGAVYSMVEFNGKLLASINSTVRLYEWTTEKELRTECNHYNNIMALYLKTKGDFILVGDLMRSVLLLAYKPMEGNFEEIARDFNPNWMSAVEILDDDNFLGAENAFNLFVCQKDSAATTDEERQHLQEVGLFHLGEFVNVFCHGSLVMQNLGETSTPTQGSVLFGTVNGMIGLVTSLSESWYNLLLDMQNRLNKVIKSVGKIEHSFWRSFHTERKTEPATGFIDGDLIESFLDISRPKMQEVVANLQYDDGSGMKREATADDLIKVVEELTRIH
GSPT1, sequence (P15170 whole entry): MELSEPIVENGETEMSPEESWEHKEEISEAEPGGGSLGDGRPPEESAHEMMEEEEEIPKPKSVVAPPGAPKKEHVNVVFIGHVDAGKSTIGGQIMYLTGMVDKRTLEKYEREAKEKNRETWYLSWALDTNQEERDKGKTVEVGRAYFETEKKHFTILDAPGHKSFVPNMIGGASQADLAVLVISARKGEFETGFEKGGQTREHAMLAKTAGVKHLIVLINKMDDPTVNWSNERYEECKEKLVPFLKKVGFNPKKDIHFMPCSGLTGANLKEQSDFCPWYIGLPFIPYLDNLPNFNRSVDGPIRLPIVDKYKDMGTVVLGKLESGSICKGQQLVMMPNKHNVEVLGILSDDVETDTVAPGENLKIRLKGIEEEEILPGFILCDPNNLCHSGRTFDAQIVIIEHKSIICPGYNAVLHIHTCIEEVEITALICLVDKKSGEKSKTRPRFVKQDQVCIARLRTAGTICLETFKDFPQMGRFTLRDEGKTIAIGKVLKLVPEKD

Compound | Effect on levels of GSPT1 (GSPT1) | Effect on abundance of other kinases [3] | Degradation of neo-substrates IKZF1 and IKZF3 (IKZF1 and IKZF3) | Induction of apoptosis (TMD8 cells [5]) | Induction of apoptosis (Mino cells [6]) | Hill slope, CRBN target engagement (CRBN) | Hill slope, BTK target engagement (BTK [8]) | also measured
4-((2-(2-(2-(2-azidoethoxy)ethoxy)ethoxy)ethyl)amino)-2-(2,6-dioxopiperidin-3-yl)isoindoline-1,3-dione [P13I, reference compound] | did not affect the levels | significant degradation of some off-targets, specifically, CSK and FRK | degrade |  |  |  |  | IC50 (TMD8 cells [1]): 15 ± 2.8 nM; IC50 (Mino cells [2]): 10.4 ± 2.4 nM
C[C@H]1CN(C2COC2)CCN1c1ccc(Nc2cc(-c3ccnc(N4CCn5c(cc6c5CC(C)(C)C6)C4=O)c3CO)cn(C)c2=O)nc1 [GDC-0853, fenebrutinib, reference compound] |  |  |  | a dose-dependent effect was observed | did not cause apoptosis |  |  | BTK degradation by parent molecules (BTK [4]; Ramos cells): no BTK degradation was observed; Effect on BCR signaling pathway (p-PLCγ2, p-BTK, p-AKT, p-NF-κB, PLCγ2, AKT, NF-κB) (BCR signaling pathway): less prominent
Cc1ncsc1-c1ccc(CNC(=O)[C@@H]2C[C@@H](O)CN2C(=O)[C@@H](NC(=O)COCCOCCCCCCC(=O)N2CCN(c3ccc(Nc4cc(-c5ccnc(N6CCn7c(cc8c7CC(C)(C)C8)C6=O)c5CO)cn(C)c4=O)nc3)[C@@H](C)C2)C(C)(C)C)cc1 [PTD3, (2S,4R)-1-((S)-2-(2-(2-((7-((S)-4-(6-((2’-(7,7-dimethyl-1-oxo-1,3,4,6,7,8-hexahydro-2H-cyclopenta[4,5]pyrrolo[1,2-a]pyrazin-2-yl)-3’-(hydroxymethyl)-1-methyl-6-oxo-1,6-dihydro-[3,4’-bipyridin]-5-yl)amino)pyridin-3-yl)-3-methylpiperazin-1-yl)-7-oxoheptyl)oxy)ethoxy)acetamido)-3,3-dimethylbutanoyl)-4-hydroxy-N-(4-(4-methylthiazol-5-yl)benzyl)pyrrolidine-2-carboxamide] |  |  |  |  |  |  |  | BTK degradation (VHL-based PROTAC) (BTK [4]; Ramos and JeKo-1 cell lines, 17 h, concentrations lower than 3000 nM, Figure S1): no degradation was observed
C[C@H]1CN(C(=O)CNc2cccc3c2C(=O)N(C2CCC(=O)NC2=O)C3=O)CCN1c1ccc(Nc2cc(-c3ccnc(N4CCn5c(cc6c5CC(C)(C)C6)C4=O)c3CO)cn(C)c2=O)nc1 (stereo partly drawn) [PTD10, 4-((2-((S)-4-(6-((2’-(7,7-dimethyl-1-oxo-1,3,4,6,7,8-hexahydro-2H-cyclopenta[4,5]pyrrolo[1,2-a]pyrazin-2-yl)-3’-(hydroxymethyl)-1-methyl-6-oxo-1,6-dihydro-[3,4’-bipyridin]-5-yl)amino)pyridin-3-yl)-3-methylpiperazin-1-yl)-2-oxoethyl)amino)-2-(2,6-dioxopiperidin-3-yl)isoindoline-1,3-dione] | did not affect the levels | did not affect the abundance of other kinases | degrade | induce apoptosis in a dose-dependent manner | induce apoptosis in a dose-dependent manner | 1.0 | 1.9 | Levels of Bcl-2 and Mcl-1 [7]: significant down-regulation; Levels of cleaved-PARP and cleaved caspase-3 [7]: increase; Concentration at which Hook effect was observed (BTK [4]; BTK degradation, Figure 3): > 333 nM; BTK degradation on co-treatment with competitor (BTK [4]; Ramos cells, 111 nM PTD10 with 1 μM GDC-0853 or 20 μM iberdomide (CC-220), 17 h): BTK degradation was completely blocked; BTK degradation after pre-treatment with bortezomib or MLN-4924 (BTK [4]; Ramos cells, pre-treated 2 h, then 111 nM PTD10 for 4 h): inhibition of BTK degradation; Effect on BCR signaling pathway (p-PLCγ2, p-BTK, p-AKT, p-NF-κB, PLCγ2, AKT, NF-κB) (BCR signaling pathway): Robust downregulation was observed; Concentration at which robust apoptosis was detected (TMD8 cells [5]; TMD8 and Mino cell lines): 333 nM; BTK degradation in B-cell malignant cell lines (BTK [9]): potent degradation effects; Ternary complex formation (in words) [10]: prominent ternary complex formation; Ternary Complex Formation (maximum) ([10]; maximum ternary complex formation setting the BRET ratio for PTD10 at 100%): 100%
C[C@H]1CN(C(=O)CNc2cccc3c2CN(C2CCC(=O)NC2=O)C3=O)CCN1c1ccc(Nc2cc(-c3ccnc(N4CCn5c(cc6c5CC(C)(C)C6)C4=O)c3CO)cn(C)c2=O)nc1 (stereo partly drawn) [PTD12, 3-(4-((2-((S)-4-(6-((2’-(7,7-dimethyl-1-oxo-1,3,4,6,7,8-hexahydro-2H-cyclopenta[4,5]pyrrolo[1,2-a]pyrazin-2-yl)-3’-(hydroxymethyl)-1-methyl-6-oxo-1,6-dihydro-[3,4’-bipyridin]-5-yl)amino)pyridin-3-yl)-3-methylpiperazin-1-yl)-2-oxoethyl)amino)-1-oxoisoindolin-2-yl)piperidine-2,6-dione] |  |  |  |  |  |  |  | Decrease in degradation activity compared to PTD10 (BTK [4]; DC50 ratio): ~ 8 fold
C[C@H]1CN(C(=O)c2cccc3c2C(=O)N(C2CCC(=O)NC2=O)C3=O)CCN1c1ccc(Nc2cc(-c3ccnc(N4CCn5c(cc6c5CC(C)(C)C6)C4=O)c3CO)cn(C)c2=O)nc1 (stereo partly drawn) [PTD13, 4-((S)-4-(6-((2’-(7,7-dimethyl-1-oxo-1,3,4,6,7,8-hexahydro-2H-cyclopenta[4,5]pyrrolo[1,2-a]pyrazin-2-yl)-3’-(hydroxymethyl)-1-methyl-6-oxo-1,6-dihydro-[3,4’-bipyridin]-5-yl)amino)pyridin-3-yl)-3-methylpiperazine-1-carbonyl)-2-(2,6-dioxopiperidin-3-yl)isoindoline-1,3-dione] |  |  |  |  |  | 1.0 | 1.4 | Ternary complex formation (in words) [10]: no ternary complex was observed
C[C@H]1CN(C(=O)COc2cccc3c2C(=O)N(C2CCC(=O)NC2=O)C3=O)CCN1c1ccc(Nc2cc(-c3ccnc(N4CCn5c(cc6c5CC(C)(C)C6)C4=O)c3CO)cn(C)c2=O)nc1 (stereo partly drawn) [PTD14, 4-(2-((S)-4-(6-((2’-(7,7-dimethyl-1-oxo-1,3,4,6,7,8-hexahydro-2H-cyclopenta[4,5]pyrrolo[1,2-a]pyrazin-2-yl)-3’-(hydroxymethyl)-1-methyl-6-oxo-1,6-dihydro-[3,4’-bipyridin]-5-yl)amino)pyridin-3-yl)-3-methylpiperazin-1-yl)-2-oxoethoxy)-2-(2,6-dioxopiperidin-3-yl)isoindoline-1,3-dione] | did not affect the levels | did not affect the abundance of other kinases | no degradation |  |  |  |  | 
C[C@H]1CN(C(=O)CCCCCCCCCCCNc2cccc3c2C(=O)N(C2CCC(=O)NC2=O)C3=O)CCN1c1ccc(Nc2cc(-c3ccnc(N4CCn5c(cc6c5CC(C)(C)C6)C4=O)c3CO)cn(C)c2=O)nc1 (stereo partly drawn) [PTD15, 4-((12-((S)-4-(6-((2’-(7,7-dimethyl-1-oxo-1,3,4,6,7,8-hexahydro-2H-cyclopenta[4,5]pyrrolo[1,2-a]pyrazin-2-yl)-3’-(hydroxymethyl)-1-methyl-6-oxo-1,6-dihydro-[3,4’-bipyridin]-5-yl)amino)pyridin-3-yl)-3-methylpiperazin-1-yl)-12-oxododecyl)amino)-2-(2,6-dioxopiperidin-3-yl)isoindoline-1,3-dione] |  |  |  |  |  | 0.5 | 1.3 | Fold less potent than GDC-0853 at engaging BTK (BTK [8]; NanoBRET): 250 fold
Nc1cccc2c1C(=O)N(C1CCC(=O)NC1=O)C2=O (stereo not shown) [Pomalidomide, pomalidomide, reference compound] |  |  |  | little effect | induced apoptosis in Mino cells in a dose-dependent manner |  |  | BTK degradation by parent molecules (BTK [4]; Ramos cells): no BTK degradation was observed
